Measurements as given in patent US20190224279A1, “PHARMACEUTICAL ASSOCIATION COMPRISING A GROWTH FACTOR RECEPTOR AGONIST CONJUGATED TO A BIOACTIVE CARRIER FOR CONVERTING A NEOPLASTIC CELL INTO A NON-NEOPLASTIC CELL AND USES THEREOF” (HISTIDE AG, priority 2015, published 2019).
No end group written: not given here.

Experiments:
[1] = Stability of non-covalent association, release of FITC-labelled GFR-binding compound from carrier; type: physicochemical; conditions: SEQ ID NO: 9 with apatite ceramics, SEQ ID NO: 10 with type-I collagen sponge; after 3, 7 or 10 days
Method: Non-covalent associations of the bioactive carriers were performed under atmospheric conditions (air) at room temperature (about 22° C.). The non-covalent association was carried out using a mixture of GFR-binding compound of SEQ ID NO: 9 (concentration of 1×10^−3 M) with the apatite ceramics or a mixture of GFR-binding compound of SEQ ID NO: 10 (concentration of 1×10^−3M) with the type-I collagen sponge. The non-covalent pharmaceutical associations were characterized by covalently associating fluorescent GFR-binding compounds of SEQ ID NO: 9 and 10 (covalently bound to fluorescein isothiocyanate (FITC), FIG. 1).

Src kinase = test: Adhesion checkpoint activation, western blot of Src kinase phosphorylation (FAK/Src kinase); type: cell-based, human; conditions: osteosarcoma cells on PET associations; 24 hours
Method: (§1) After 24 hours of culture, cells were permeabilized (10% SDS, 25 mM NaCl, 10 nM pepstatin and 10 nM leupeptin in distilled water and loading buffer), boiled for 10 minutes and resolved by reducing PAGE (Invitrogen). Proteins were transferred onto nitrocellulose, blocked, and labeled with HRP-conjugated antibodies (Invitrogen). Integrin αv, α5, α3, α4, β1, β, β5 and […] were blotted by treating the nitrocellulose with monoclonal anti-integrin (extracellular domain) αv, α5, α3, α4, β1, β3, β5 and β6 antibodies (Santa Cruz Biotechnology). Phosphor-Smad1/5/8 was blotted by treating the nitrocellulose with monoclonal anti-p-Smad1/5/8 (Santa Cruz Biotechnology). For all of the experiments the western blot was performed in triplicate, along with an additional blot for actin and coomassie blue staining to ensure constant protein load among samples.
(§2) Neoplastic cells (in this example osteosarcoma cells) were cultured on pharmaceutical associations comprising PET as a bioactive carrier and one of GFR-binding compounds of SEQ ID NO: 12, 19, 30 or 39. The main signaling pathways include: Ras/MAP kinase, FAK/Src kinase and PIP2 which are decreased after 24 hours as shown by western blot quantifications (FIG. 8). […] Finally, a decrease of 3-phosphoinositide-dependent protein kinase 1 (PDK1) protein expression was also was observed (FIG. 8C).

[2] = tested on: Cyclin D (arithmetic mean of Cyclin D1, Cyclin D2 and Cyclin D3); test: Cyclin D profile by RT-PCR; type: cell-based, human; conditions: osteosarcoma cells on PET associations; after the first 30 min of cell culture
Method: (§3) After 24 hours of culture, total RNA was extracted by using the RNeasy total RNA kit (Qiagen®) according to the manufacturer's instructions. Purified total RNA was used as a template in order to make cDNA by a reverse transcription reaction (Gibco BrI®) with random primers (Invitrogen®). The cDNA was then used as a template for a real-time PCR amplification in the presence of SYBR green reagents (Bio-Rad®) by using a thermocycler (iCycler, Biorad®). Data were analyzed with the iCycler IQ™® software and compared by the ΔΔCt method. Briefly, the mean Ct value of the target gene was normalized to its averaged Ct values of the housekeeping gene (GAPDH) to give a ΔCt value, which was then normalized to a control sample to obtain a ΔΔCt value. The results were obtained from two series of experiments performed in triplicate.
Neoplastic cells (in this example osteosarcoma cells) were cultured on pharmaceutical associations comprising PET as a bioactive carrier and one of GFR-binding compounds of SEQ ID NO: 12, 19, 30 or 39. The Cyclin D (the arithmetic mean of Cyclin D1, Cyclin D2 and Cyclin D3) gene expression decreased after the first 30 min of cell culture as shown by RT-PCR (FIG. 10).

Paxillin = Paxillin gene expression by RT-PCR; type: cell-based, human; conditions: osteosarcoma cells on PET associations; 24 hours
Method: as §3
(§4) Neoplastic cells (in this example osteosarcoma cells) were cultured on pharmaceutical associations comprising PET as a bioactive carrier and one of GFR-binding compounds of SEQ ID NO: 12, 19, 30 or 39. After 24 hours, the Paxillin and Vinculin gene expression decreased as shown by RT-PCR (FIG. 9).

Vinculin = Vinculin gene expression by RT-PCR; type: cell-based, human; conditions: osteosarcoma cells on PET associations; 24 hours
Method: as §3, §4

[3] = tested on: 3-phosphoinositide-dependent protein kinase 1 (PDK1); test: Adhesion checkpoint activation, western blot of PDK1 protein expression (PIP2); type: cell-based, human; conditions: osteosarcoma cells on PET associations; 24 hours
Method: as §1, §2

ERK = test: Adhesion checkpoint activation, western blot of ERK phosphorylation (Ras/MAP kinase); type: cell-based, human; conditions: osteosarcoma cells on PET associations; 24 hours
Method: as §1, §2

[4] = tested on: neoplastic cells (osteosarcoma cells); test: Immunofluorescence visualization (actin, vinculin, DAPI) of neoplastic cells on grafted polymer scaffold, 24 hours; type: cell-based; conditions: polymer scaffold covalently modified with mixture of GFR-binding compound and RGD peptide; 24 hours of culture
Method: FIG. 12 is (a) a representation of a Quantitative Real Time PCR analysis of the expression of DMP-1, SCT and RANK-L in neoplastic cells (osteosarcoma cells) cultured on a native polymer scaffold (control) and on a polymer scaffold grafted with a mixture comprising a GFR-binding compound as defined in the present disclosure and a RGD peptide, after 24 hours of culture, (b) immunofluorescence staining of a representative neoplastic cell (osteosarcoma cells) cultured on a polymer scaffold grafted with a mixture comprising a GFR-binding compound as defined in the present disclosure (ID SEQ NO: 2) and a RGD peptide, after 24 hours of culture. The actin filaments were immunostained by using Alexa 488-phalloidin. The focal adhesions were represented by immunostaining with anti-vinculin. The nucleus was stained with DAPI and is represented by a circle in the center of the cell. Scale bar: 5 μm. (c) is a diagram representing the grafting density of a radiolabeled GFR-binding compound as defined in the present disclosure covalently grafted on a polymer scaffold and of a radiolabeled GFR-binding compound and a non-labeled RGD peptide both grafted on a polymer scaffold. The measurements were performed by using radioactivity quantification (no significant difference was observed). […]

| Substance | release of GFR-binding compound from non-covalent association [1] | phosphorylation of Src kinase (Src kinase) | Cyclin D gene expression [2] | Paxillin gene expression (Paxillin) | Vinculin gene expression (Vinculin) | PDK1 protein expression [3] | phosphorylation at Thr202 and Tyr204 on ERK (ERK) | Morphology of neoplastic cells by immunofluorescence visualization [4] |
| --- | --- | --- | --- | --- | --- | --- | --- | --- |
| SEQ ID NO: 10: GFR-binding compound non-covalently associated with type-I collagen sponge; sequence only in the sequence listing (PSSAPTQLSATSVLYYDDSSNVILRKHR; not fully specified) | no significant release |  |  |  |  |  |  |  |
| SEQ ID NO: 12: GFR-binding compound covalently associated with PET as bioactive carrier; sequence only in the sequence listing (KVGKASSVPTKLSAISMLYLDDMGVPTLKNYQNMVVRAS; also: covalently attached to PET (bioactive carrier), site not given here) |  | no phosphorylation at Thr416 but phosphorylation of Tyr527 | decreased | decreased | decreased | decrease | absence of phosphorylation |  |
| SEQ ID NO: 30: GFR-binding compound covalently associated with PET as bioactive carrier; sequence only in the sequence listing (APTKLSAISMLYYDSSNNVIEQLSN; also: covalently attached to PET) |  | no phosphorylation at Thr416 but phosphorylation of Tyr527 | decreased | decreased | decreased | decrease | absence of phosphorylation |  |
| SEQ ID NO: 39: GFR-binding compound covalently associated with PET as bioactive carrier; sequence only in the sequence listing (KASSVPTELSPISTLYKDENEKVVLKYHYDMVV; also: covalently attached to PET) |  | no phosphorylation at Thr416 but phosphorylation of Tyr527 | decreased | decreased | decreased | decrease | absence of phosphorylation |  |
| SEQ ID NO: 2: a GFR-binding compound as defined in the present disclosure, grafted on a polymer scaffold in a mixture with a RGD peptide (KVGKASSVPTKLSAISTLYLDDMGVPTLKNYQNMVVRASGSH; also: grafted on polymer scaffold in mixture with RGD peptide) |  |  |  |  |  |  |  | Spheroid-like structures of neoplastic cells become predominant |
| SEQ ID NO: 19: GFR-binding compound covalently associated with PET as bioactive carrier; sequence only in the sequence listing (PSSAPTQLSATSMLYYDDSSNVILRKHRQHNK; also: covalently attached to PET) |  | no phosphorylation at Thr416 but phosphorylation of Tyr527 | decreased | decreased | decreased | decrease | absence of phosphorylation |  |
| SEQ ID NO: 9: GFR-binding compound non-covalently associated with apatite ceramics; sequence only in the sequence listing (RNVQCRPTQVQLSAISTLYLEIVRKKPLKNYQTLEDH; non-covalently associated with apatite ceramics; Non-cyclic GFR-binding peptide) | no significant release |  |  |  |  |  |  |  |
